From US8404677B2, “Kinase inhibitors” (Genosco, priority 2009, dated 2013) come the findings set out here.

Where a name gives a salt, the structure may show the parent alone.

For one experiment, the target named is T1, human ZAP70 (Homo sapiens, UniProt P43403).
T1 construct: Purified full-length human SYK, ZAP70, PIM1, PYK2; purchased Carna Biosciences
T1 sequence (P43403 1-619): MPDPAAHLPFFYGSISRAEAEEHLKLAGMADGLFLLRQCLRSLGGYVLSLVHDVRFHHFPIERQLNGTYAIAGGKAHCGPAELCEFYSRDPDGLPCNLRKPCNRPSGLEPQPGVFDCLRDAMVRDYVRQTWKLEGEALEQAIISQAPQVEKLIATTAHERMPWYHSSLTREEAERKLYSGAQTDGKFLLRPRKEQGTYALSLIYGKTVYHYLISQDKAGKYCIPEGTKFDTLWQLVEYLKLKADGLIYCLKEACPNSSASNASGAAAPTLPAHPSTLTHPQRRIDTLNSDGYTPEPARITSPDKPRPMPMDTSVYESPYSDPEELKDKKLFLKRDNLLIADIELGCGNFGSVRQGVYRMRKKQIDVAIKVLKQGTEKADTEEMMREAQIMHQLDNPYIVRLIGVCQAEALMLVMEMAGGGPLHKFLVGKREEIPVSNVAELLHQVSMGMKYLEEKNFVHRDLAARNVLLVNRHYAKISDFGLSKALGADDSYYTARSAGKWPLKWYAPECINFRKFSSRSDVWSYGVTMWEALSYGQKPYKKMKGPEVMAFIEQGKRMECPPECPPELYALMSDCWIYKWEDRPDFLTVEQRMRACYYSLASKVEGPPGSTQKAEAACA
Briefly: Inhibition of enzymatic kinase activity (LANCE Ulight). Type of experiment: biochemical. The note with it: at 1 μM concentration; for inhibition at 1 µM: read-out: ZAP70 percentage inhibition. The procedure: (§1) Inhibition of Enzymatic SYK, ZAP70, PYK2, FAK, PIM1, RET, FLT3, JAK2 and LRRK2 Kinase Activity
(§2) Compounds of the invention were initially diluted to 10 mM in 100% DMSO (CALBIOCHEM™) for storage and made into kinase buffer solution to create a compound concentration ranging from 1 uM and 10 uM. Serial dilutions of compounds of the invention were dispensed into a 96-well plate (GREINER BIOSCIENCES™) at 6 μL each. Purified full-length human SYK, ZAP70, PIM1, PYK2 and truncated human FAK, RET, FLT3, JAK2, and LRRK2 (CARNA BIOSCIENCES™) were diluted in kinase buffer and added to the compound solutions and pre-incubated for 30 minutes at room temperature (1 hour for PYK2). […] The reaction mixture was incubated for 1 hour (2 hours for PYK2). Following the incubation, the stop solution made with EDTA, water, and Lance detection buffer ([…]™) was added (12 μL each) to stop phosphorylation.
In general terms: Time-resolved FRET reads energy transfer from a long-lived donor to a nearby acceptor.

In a further experiment the target is T2, truncated human FAK (Homo sapiens, UniProt Q05397).
T2 construct: truncated human FAK, RET, FLT3, JAK2, and LRRK2 (CARNA BIOSCIENCES™); purchased Carna Biosciences
T2 sequence (Q05397 376-1052 limits assumed): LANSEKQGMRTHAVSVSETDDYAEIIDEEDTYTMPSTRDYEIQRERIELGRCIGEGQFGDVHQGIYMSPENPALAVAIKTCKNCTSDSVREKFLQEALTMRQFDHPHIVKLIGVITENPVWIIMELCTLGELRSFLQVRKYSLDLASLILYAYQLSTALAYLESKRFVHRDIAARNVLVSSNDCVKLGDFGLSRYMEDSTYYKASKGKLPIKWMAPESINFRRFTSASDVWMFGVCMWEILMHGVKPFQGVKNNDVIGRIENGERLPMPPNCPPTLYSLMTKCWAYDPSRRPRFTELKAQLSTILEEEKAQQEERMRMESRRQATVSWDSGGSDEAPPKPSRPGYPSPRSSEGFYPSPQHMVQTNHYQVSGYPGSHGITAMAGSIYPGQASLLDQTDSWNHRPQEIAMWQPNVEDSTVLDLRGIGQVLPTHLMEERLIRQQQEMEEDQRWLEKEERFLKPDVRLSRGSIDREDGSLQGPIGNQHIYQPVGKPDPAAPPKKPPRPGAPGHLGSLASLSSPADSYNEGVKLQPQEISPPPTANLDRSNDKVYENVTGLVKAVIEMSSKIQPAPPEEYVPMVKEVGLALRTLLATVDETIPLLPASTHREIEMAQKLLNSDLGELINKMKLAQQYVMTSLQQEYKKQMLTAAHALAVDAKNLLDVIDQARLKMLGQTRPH
The description is as above. Type of experiment: biochemical. The note with it: at 1 μM concentration; for inhibition at 1 µM: read-out: FAK percentage inhibition. The procedure:
as §1, §2

For another experiment, the target named is T3, human PIM1 (Homo sapiens, UniProt P11309).
T3 construct: Purified full-length human SYK, ZAP70, PIM1, PYK2; purchased Carna Biosciences
T3 sequence (P11309 whole entry): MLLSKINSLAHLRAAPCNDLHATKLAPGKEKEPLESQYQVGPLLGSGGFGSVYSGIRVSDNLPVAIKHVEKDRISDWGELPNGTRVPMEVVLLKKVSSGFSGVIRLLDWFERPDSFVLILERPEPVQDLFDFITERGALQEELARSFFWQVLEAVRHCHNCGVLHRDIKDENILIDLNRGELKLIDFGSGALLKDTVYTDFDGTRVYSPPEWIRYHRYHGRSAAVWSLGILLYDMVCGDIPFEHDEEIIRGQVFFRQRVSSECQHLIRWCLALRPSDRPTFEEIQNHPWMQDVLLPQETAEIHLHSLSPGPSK
The experiment is described as above. Type of experiment: biochemical. The note with it: at 1 μM concentration; for inhibition at 1 µM: read-out: PIM1 percentage inhibition. The procedure: as §1
as §2, with “phosphorylation. […] Substrate phosphorylation was a function of the 665 nm emission measured following the addition of the detection solution and 50 minutes of incubation.” for “phosphorylation.”

In the next experiment the target is PYK2 (Homo sapiens, UniProt Q14289). The experiment is described as above. Type of experiment: biochemical. Set-up: Purified full-length human SYK, ZAP70, PIM1, PYK2; purchased Carna Biosciences. The note with it: at 1 μM concentration; for inhibition at 1 µM: read-out: PYK2 percentage inhibition. The procedure:
as §1, §2

For a further experiment, the target named is SYK (Homo sapiens, UniProt P43405). The experiment is described as above. Type of experiment: biochemical. Also on record: Purified full-length human SYK, ZAP70, PIM1, PYK2; purchased Carna Biosciences. The note with it: at 1 μM concentration; for inhibition at 1 µM: read-out: SYK percentage inhibition. The procedure:
as §1, §2

A further experiment relates to MTC-TT. Description: Cell viability assay: RET inhibition. Type of experiment: cell-based, human. The note with it: Homo sapiens, 48 h; two days after drug treatment. The procedure:
In order to address RET dependent cell viability, the medullary thyroid carcinoma cell line, MTC-TT representing MEN2A was utilized to test compounds of the invention. MTC-TT were cultured at RPMI containing 15 bovine calf serum (Hyclon™ of Thermo™) and supplemented with 2 mM L-Glutamine. The cells were grown at a density of 5×10^4 cells/100 μL/well in duplicate in 96-well plates for one day and treated with different concentrations of test compound. Cell viability for MTC-TT two days after drug treatment was measured by Cell Titer 96 Aqueous One Solution Reagent (Promega™) according to the manufacture instructions. The IC50 value of test compound was calculated at Gradpad Prism 5 unless specified otherwise.

The subject of experiment [1] is MV4-11 cells expressing human FLT3-ITD. Briefly: Cell viability assay: FLT3-ITD-positive cells. The note with it: Homo sapiens, MV4-11; 72-hour incubation; read-out: MV-4-11 cell viability IC50. The experiment is classed as cell-based. As to the method:
Compounds of the invention were tested for cell viability effect on MV4-11 cells. For cell viability assay, MV4-11 cells expressing human FLT3-ITD were obtained from the American Type Culture Collection (ATCC, Manassas, Va.). This cell line was maintained with an Roswell Park Memorial Institute (RPMI) medium (HyClone™) containing 10 bovine calf serum (BCS; Hyclone™) supplemented iron. […] CellTiter Aqueous assay (Promega™) was also performed in parallel as an orthogonal assay. IC50 values were calculated using nonlinear regression and defined as the concentration needed for a 50 reduction in luminescence or absorbance treated versus untreated control cells (Prism™ Software).

Sequence of PYK2 (Q14289 whole entry): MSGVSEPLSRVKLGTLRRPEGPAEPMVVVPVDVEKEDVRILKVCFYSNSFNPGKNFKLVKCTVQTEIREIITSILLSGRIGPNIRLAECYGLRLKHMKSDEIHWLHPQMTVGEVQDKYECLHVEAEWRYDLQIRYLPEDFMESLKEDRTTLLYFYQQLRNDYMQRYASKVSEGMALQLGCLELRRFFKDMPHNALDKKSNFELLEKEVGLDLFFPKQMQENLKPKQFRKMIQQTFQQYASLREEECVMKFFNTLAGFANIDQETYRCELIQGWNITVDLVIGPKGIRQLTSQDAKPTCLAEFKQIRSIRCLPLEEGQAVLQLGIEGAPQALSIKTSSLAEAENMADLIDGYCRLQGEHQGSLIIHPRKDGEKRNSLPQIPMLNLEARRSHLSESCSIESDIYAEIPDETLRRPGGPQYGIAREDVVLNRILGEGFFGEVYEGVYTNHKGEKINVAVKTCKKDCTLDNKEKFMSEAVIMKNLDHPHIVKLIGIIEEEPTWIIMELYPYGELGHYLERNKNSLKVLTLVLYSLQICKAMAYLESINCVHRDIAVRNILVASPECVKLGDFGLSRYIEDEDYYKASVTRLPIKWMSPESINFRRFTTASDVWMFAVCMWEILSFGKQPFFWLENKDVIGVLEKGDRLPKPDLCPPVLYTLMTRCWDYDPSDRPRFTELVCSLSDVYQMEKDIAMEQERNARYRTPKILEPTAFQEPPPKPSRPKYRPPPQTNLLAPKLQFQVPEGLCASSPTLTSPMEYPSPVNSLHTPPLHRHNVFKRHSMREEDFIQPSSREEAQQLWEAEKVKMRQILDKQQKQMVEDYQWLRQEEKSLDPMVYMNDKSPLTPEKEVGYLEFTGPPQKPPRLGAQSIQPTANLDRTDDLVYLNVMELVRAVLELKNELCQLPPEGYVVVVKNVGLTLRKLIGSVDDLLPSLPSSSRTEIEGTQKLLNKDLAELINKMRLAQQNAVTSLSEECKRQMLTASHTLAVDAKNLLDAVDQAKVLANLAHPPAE

At human ZAP70, “(2-((1R,2S)-2-aminocyclohexylamino)-4-(3-(trifluoromethyl)phenylamino)pyrido[4,3-d]pyrimidin-5(6H)-one with (2-((1S,2R)-2-aminocyclohexylamino)-4-(3-(trifluoromethyl)phenylamino)pyrido[4,3-d]pyrimidin-5(6H)-one [Compound 101]” displayed a ZAP70 percentage inhibition of 45%. On truncated human FAK, this compound had an FAK percentage inhibition of 77%. Besides, the PIM1 percentage inhibition at human PIM1 was determined as 61%. The compound further displayed a PYK2 percentage inhibition at PYK2 of 85%. Besides, the SYK percentage inhibition on SYK is given as 90%.

For orientation: IC50 means the midpoint of a concentration-inhibition curve. `CCN(CC)CCNC(=O)c1c(C)[nH]c(/C=C2\C(=O)Nc3ccc(F)cc32)c1C` [Sunitinib, reference compound]: the IC50 was found to be 117 nM with MTC-TT and 3.8 nM in experiment [1].

As a reminder, the inhibition is the drop in the measured response relative to a control, in per cent. On to `NC1CCC(Nc2nc(Nc3cccc(C(F)(F)F)c3)c3c(=O)[nH]ccc3n2)CC1` [Compound 9, 2-((1R,4R)-4-aminocyclohexylamino)-4-(3-(trifluoromethyl)phenylamino)pyrido[4,3-d]pyrimidin-5(6H)-one], for which the inhibition at 1 µM at human ZAP70 turned out to be 32%; on truncated human FAK, 83%; on human PIM1, 64%; on PYK2, 89%; on SYK it was 84%.

Consider `N[C@@H]1CCN(c2nc(Nc3cccc(C(F)(F)F)c3)c3c(=O)[nH]ccc3n2)C1` [Compound 7, (R)-2-(3-aminopyrrolidin-1-yl)-4-(3-(trifluoromethyl)phenylamino)pyrido[4,3-d]pyrimidin-5(6H)-one hydrochloride], for which the inhibition at 1 µM came to 42% at human ZAP70; 83.5% at truncated human FAK; 51.4% on human PIM1; 84.9% on PYK2; 92.6% on SYK.

`NC1CCN(c2nc(Nc3cccc(Br)c3)c3c(=O)[nH]ccc3n2)CC1` [Compound 84, 2-(4-aminopiperidin-1-yl)-4-(3-bromophenylamino)pyrido[4,3-d]pyrimidin-5(6H)-one hydrochloride]: the inhibition at 1 µM on human ZAP70 worked out at 54.6%; on truncated human FAK, 92.9%; on human PIM1, 71.2%; at PYK2, 92.8%; on SYK, 95.7%.

Regarding `Cn1ccc2nc(N3CCC(O)CC3)nc(Nc3cccc(C(F)(F)F)c3)c2c1=O` [Compound 168, 2-(4-hydroxypiperidine-1-yl)-6-methyl-4-(3-(trifluoromethyl)phenylamino)pyrido[4,3-d]pyrimidin-5(6H)-one], the inhibition at 1 µM came out at 6.2% on human ZAP70; 4.9% at truncated human FAK; 7.3% at human PIM1; 1% on PYK2; 3% at SYK.
